The source made the active and inactive calls. No cut-off for these calls is given here.
Experiments:
[1] = test system: A549; assay: Growth inhibition of human A549 cells after 72 hrs by SRB assay; type: functional; conditions: A549, 72 h
[2] = biological target: T1, Heat shock protein HSP 90-alpha (Homo sapiens, UniProt P07900)
Description: Inhibition of HSP90alpha (unknown origin) after 16 hrs by FP enzymatic assay

[3] = Intrinsic clearance in human liver microsomes assessed per mg protein; type: ADME; conditions: read-out: CLH
[4] = Mean residence time in mouse at 50 mg/kg, po; type: ADME, organism-based; parameters: dose 50 mg/kg, route oral; conditions: in vivo
[5] = test system: SK-MEL-28; assay: Growth inhibition of human SK-MEL-28 cells after 72 hrs by SRB assay; type: functional; conditions: SK-MEL-28, 72 h
[6] = Growth inhibition of human OVCAR8 cells after 72 hrs by SRB assay; type: functional; conditions: OVCAR-8, 72 h
[7] = test system: HCC1937; assay: Growth inhibition of human HCC1937 cells after 72 hrs by SRB assay; type: functional; conditions: HCC1937, 72 h
[8] = test system: NCI-H596; assay: Growth inhibition of human NCI-H596 cells after 72 hrs by SRB assay; type: functional; conditions: NCI-H596, 72 h
[9] = AUC (0 to t) in mouse at 10 mg/kg, iv; type: ADME, organism-based; parameters: dose 10 mg/kg, route intravenous; conditions: plasma
[10] = Cmax in mouse at 50 mg/kg, po; type: ADME, organism-based; parameters: dose 50 mg/kg, route oral; conditions: in vivo
[11] = Tmax in mouse at 50 mg/kg, po; type: ADME, organism-based; parameters: dose 50 mg/kg, route oral; conditions: in vivo
[12] = Growth inhibition of human HCT116 cells after 72 hrs by SRB assay; type: functional; conditions: HCT-116, 72 h
[13] = Oral bioavailability in mouse at 50 mg/kg; type: ADME, organism-based; conditions: in vivo
[14] = Growth inhibition of human 786-O cells after 72 hrs by SRB assay; type: functional; conditions: 786-0, 72 h
[15] = Half life in mouse at 50 mg/kg, po; type: ADME, organism-based; parameters: dose 50 mg/kg, route oral; conditions: in vivo
[16] = Half life in mouse at 10 mg/kg, iv; type: ADME, organism-based; parameters: dose 10 mg/kg, route intravenous; conditions: in vivo
[17] = test system: MDA-MB-468; assay: Growth inhibition of human MDA-MB-468 cells after 72 hrs by SRB assay; type: functional; conditions: MDA-MB-468, 72 h
[18] = Intrinsic clearance in rat liver microsomes assessed per mg protein; type: ADME; conditions: read-out: CLH
[19] = test system: DU-145; assay: Growth inhibition of human DU145 cells after 72 hrs by SRB assay; type: functional; conditions: DU-145, 72 h
[20] = test system: MDA-MB-231; assay: Growth inhibition of human MDA-MB-231 cells after 72 hrs by SRB assay; type: functional; conditions: MDA-MB-231, 72 h
[21] = Mean residence time in mouse at 10 mg/kg, iv; type: ADME, organism-based; parameters: dose 10 mg/kg, route intravenous; conditions: in vivo
[22] = test system: HeLa; assay: Growth inhibition of human HeLa cells after 72 hrs by SRB assay; type: functional
[23] = test system: SW480; assay: Growth inhibition of human SW480 cells after 72 hrs by SRB assay; type: functional; conditions: SW480, 72 h
[24] = Growth inhibition of human U87MG cells after 72 hrs by SRB assay; type: functional, U-87MG ATCC; conditions: U-87 MG
[25] = test system: SW-620; assay: Growth inhibition of human SW620 cells after 72 hrs by SRB assay; type: functional; conditions: SW-620, 72 h
[26] = AUC (0 to t) in mouse at 50 mg/kg, po; type: ADME, organism-based; parameters: dose 50 mg/kg, route oral; conditions: plasma
[27] = Growth inhibition of human SMMC7721 cells after 72 hrs by SRB assay; type: functional; conditions: SMMC-7721, 72 h
[28] = Growth inhibition of human HCC827 cells after 72 hrs by SRB assay; type: functional; conditions: HCC827, 72 h
[29] = biological target: hERG (KCNH2) (Homo sapiens, UniProt Q12809); assay: Inhibition of human ERG at 1 uM
Sequence of hERG (KCNH2) (Q12809 whole entry): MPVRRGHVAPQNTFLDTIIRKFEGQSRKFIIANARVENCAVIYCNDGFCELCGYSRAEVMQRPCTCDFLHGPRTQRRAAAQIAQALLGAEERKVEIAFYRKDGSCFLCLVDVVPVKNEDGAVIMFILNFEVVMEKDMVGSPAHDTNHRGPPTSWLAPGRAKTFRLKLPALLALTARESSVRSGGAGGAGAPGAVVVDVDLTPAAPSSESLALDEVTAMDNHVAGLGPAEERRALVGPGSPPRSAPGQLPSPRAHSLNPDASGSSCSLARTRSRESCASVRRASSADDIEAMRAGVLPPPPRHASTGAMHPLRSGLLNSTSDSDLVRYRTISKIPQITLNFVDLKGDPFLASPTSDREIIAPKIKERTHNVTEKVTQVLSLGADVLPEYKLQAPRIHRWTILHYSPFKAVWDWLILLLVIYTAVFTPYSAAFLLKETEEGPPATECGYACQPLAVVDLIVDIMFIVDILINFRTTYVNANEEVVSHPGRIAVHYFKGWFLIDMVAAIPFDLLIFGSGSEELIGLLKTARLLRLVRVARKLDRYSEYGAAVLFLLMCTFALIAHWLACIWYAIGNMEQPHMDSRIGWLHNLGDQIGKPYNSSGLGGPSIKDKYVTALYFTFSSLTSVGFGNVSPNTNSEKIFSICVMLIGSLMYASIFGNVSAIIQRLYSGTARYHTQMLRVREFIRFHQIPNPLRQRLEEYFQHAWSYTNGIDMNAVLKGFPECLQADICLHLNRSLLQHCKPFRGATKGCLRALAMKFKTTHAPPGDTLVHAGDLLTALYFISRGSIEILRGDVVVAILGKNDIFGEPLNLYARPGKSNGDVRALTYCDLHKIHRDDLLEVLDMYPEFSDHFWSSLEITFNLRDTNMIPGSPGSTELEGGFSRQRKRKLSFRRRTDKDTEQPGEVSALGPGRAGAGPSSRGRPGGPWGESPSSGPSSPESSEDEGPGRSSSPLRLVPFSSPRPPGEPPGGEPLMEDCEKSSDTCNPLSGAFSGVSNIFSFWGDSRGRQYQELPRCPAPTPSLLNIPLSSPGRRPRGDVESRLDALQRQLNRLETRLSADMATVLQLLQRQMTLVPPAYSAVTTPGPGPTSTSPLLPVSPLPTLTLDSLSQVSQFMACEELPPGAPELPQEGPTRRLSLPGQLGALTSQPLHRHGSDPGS

[30] = biological target: T1, Heat shock protein HSP 90-alpha; conditions: U-87MG ATCC
Description: Inhibition of HSP90alpha in human U87MG cells assessed as decrease in c-Met level at 50 to 100 nM after 24 hrs by western blotting

[31] = biological target: CYP2D6 (Homo sapiens, UniProt P10635); assay: Inhibition of CYP2D6 in human liver microsomes at 10 uM after 20 mins
Sequence of CYP2D6 (P10635 whole entry): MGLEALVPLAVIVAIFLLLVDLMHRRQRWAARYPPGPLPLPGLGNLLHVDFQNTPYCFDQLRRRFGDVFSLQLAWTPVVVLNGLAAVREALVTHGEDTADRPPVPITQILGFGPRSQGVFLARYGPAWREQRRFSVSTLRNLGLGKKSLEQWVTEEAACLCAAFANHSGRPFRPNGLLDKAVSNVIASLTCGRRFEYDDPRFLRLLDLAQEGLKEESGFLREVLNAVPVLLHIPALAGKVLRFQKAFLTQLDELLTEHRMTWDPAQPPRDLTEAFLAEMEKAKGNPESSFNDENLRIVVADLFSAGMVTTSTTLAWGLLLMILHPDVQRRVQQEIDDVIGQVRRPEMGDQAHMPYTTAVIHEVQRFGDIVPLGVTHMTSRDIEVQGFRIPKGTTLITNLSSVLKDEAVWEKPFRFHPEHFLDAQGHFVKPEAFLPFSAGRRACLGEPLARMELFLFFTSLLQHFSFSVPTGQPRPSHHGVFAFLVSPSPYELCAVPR

[32] = biological target: Cytochrome P450 3A4 (Homo sapiens, UniProt P08684); assay: Inhibition of CYP3A4 in human liver microsomes at 10 uM after 20 mins; conditions: microsomes, 20 min, 10 µM
Sequence of Cytochrome P450 3A4 (P08684 whole entry): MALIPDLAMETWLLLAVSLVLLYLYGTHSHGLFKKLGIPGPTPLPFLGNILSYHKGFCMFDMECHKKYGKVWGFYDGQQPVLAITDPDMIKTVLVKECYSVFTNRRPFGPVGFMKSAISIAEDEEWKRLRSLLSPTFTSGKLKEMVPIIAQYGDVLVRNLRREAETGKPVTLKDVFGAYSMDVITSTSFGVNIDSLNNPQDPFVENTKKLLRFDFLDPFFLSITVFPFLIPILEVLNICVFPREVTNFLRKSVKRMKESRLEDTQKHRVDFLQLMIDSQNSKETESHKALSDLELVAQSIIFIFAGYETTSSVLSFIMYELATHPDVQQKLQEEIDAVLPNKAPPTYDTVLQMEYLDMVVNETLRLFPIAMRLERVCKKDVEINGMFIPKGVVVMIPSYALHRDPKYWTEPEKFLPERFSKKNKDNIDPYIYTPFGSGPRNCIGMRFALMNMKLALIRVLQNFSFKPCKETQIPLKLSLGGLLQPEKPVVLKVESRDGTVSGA

[33] = biological target: T1, Heat shock protein HSP 90-alpha; conditions: U-87MG ATCC; remark: listed apart in the source
Description: Inhibition of HSP90alpha in human U87MG cells assessed as decrease in p-Erk level at 50 to 100 nM after 24 hrs by western blotting

[34] = biological target: CYP2C9 (Homo sapiens, UniProt P11712); assay: Inhibition of CYP2C9 in human liver microsomes at 10 uM after 20 mins
Sequence of CYP2C9 (P11712 whole entry): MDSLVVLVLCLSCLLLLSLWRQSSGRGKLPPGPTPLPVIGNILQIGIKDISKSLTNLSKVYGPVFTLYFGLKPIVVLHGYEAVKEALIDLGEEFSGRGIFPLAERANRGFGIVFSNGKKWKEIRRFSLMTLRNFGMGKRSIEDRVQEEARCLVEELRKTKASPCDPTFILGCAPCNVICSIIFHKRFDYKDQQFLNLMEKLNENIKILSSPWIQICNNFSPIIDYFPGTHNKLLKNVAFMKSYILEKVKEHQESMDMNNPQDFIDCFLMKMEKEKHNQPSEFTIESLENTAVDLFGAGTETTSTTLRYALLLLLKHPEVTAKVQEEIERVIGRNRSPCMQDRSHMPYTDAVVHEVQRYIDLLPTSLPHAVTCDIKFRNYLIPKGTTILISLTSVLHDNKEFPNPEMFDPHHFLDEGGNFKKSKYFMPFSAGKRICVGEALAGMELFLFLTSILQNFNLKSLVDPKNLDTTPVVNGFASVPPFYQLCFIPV

[35] = biological target: T1, Heat shock protein HSP 90-alpha; conditions: U-87MG ATCC; remark: listed apart in the source
Description: Inhibition of HSP90alpha in human U87MG cells assessed as decrease in p-Akt level at 50 to 100 nM after 24 hrs by western blotting

[36] = biological target: T1, Heat shock protein HSP 90-alpha; conditions: U-87MG ATCC; remark: listed apart in the source
Description: Inhibition of HSP90alpha in human U87MG cells assessed as increase in HSP27 level at 50 to 200 nM after 24 hrs by western blotting

[37] = biological target: T2, CYP1A2 (Homo sapiens, UniProt P05177); assay: Inhibition of CYP1A2 in human liver microsomes at 10 uM after 20 mins
T2 sequence (P05177 whole entry): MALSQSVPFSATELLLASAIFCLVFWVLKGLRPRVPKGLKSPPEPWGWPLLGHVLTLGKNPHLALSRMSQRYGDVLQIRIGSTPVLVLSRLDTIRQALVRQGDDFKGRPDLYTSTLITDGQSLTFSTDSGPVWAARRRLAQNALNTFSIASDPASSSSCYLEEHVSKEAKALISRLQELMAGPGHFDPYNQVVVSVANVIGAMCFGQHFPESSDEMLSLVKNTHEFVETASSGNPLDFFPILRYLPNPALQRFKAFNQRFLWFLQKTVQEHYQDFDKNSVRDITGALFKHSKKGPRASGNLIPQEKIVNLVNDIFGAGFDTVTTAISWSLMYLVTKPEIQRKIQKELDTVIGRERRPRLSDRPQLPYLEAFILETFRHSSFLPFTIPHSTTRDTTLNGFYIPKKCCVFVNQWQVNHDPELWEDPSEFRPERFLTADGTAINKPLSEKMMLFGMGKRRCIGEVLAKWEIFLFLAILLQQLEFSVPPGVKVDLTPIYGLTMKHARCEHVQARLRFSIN

[38] = biological target: T1, Heat shock protein HSP 90-alpha; conditions: U-87MG ATCC; remark: listed apart in the source
Description: Inhibition of HSP90alpha in human U87MG cells assessed as increase in HSP70 level at 50 to 200 nM after 24 hrs by western blotting

In the case of `CCC(=O)Nc1onc(-c2cc(Cl)c(O)cc2O)c1-c1ccc(OC)cc1`, the GI50 [1] is reported as 2360 nM and the IC50 [2] is reported as 37 nM.

`CC(C)c1cc(-c2noc(NC(=O)C3CC3)c2-c2ccc(CN3CCC(N(C)C)CC3)cc2)c(O)cc1O` gave a GI50 [1] of 2420 nM and an IC50 [2] of 70 nM.

Compound `COc1ccc(-c2c(-c3ccc(O)cc3O)noc2NC(C)=O)cc1` has a GI50 [1] of 13100 nM and an IC50 [2] of 140 nM.

With `CC(C)c1cc(-c2noc(NC(=O)C3CC3)c2-c2ccc(CN(C)CCN(C)C)cc2)c(O)cc1O` the GI50 [1] was 499 nM and the IC50 [2] was 55 nM.

Work on `COc1ccc(-c2c(-c3cc(Cl)c(O)cc3O)noc2NC(=O)C2CCCCC2)cc1` yielded a GI50 [1] of 42900 nM and an IC50 [2] of 180 nM.

`CCNC(=O)Nc1onc(-c2cc(Cl)c(O)cc2O)c1-c1ccc(OC)cc1` gave a GI50 [1] of 926 nM and an IC50 [2] of 59 nM.

For `CCCC(=O)Nc1onc(-c2cc(Cl)c(O)cc2O)c1-c1ccc(OC)cc1`, the GI50 [1] was 8490 nM and the IC50 [2] was 60 nM.

Compound `COc1ccc(-c2c(-c3cc(Cl)c(O)cc3O)noc2NC(=O)C2CCCC2)cc1` has a GI50 [1] of 18700 nM and an IC50 [2] of 44 nM.

`CCCCCCCC(=O)Nc1onc(-c2cc(Cl)c(O)cc2O)c1-c1ccc(OC)cc1` gave a GI50 [1] of 761 nM and an IC50 [2] of 43 nM.

For `CC(C)c1cc(-c2noc(NC(=O)C3CC3)c2-c2ccc(CN3CCC(N4CCOCC4)CC3)cc2)c(O)cc1O` [listing 1 of 2 here], the microsomal CLint [3] was 70 µL/min/mg, the MRT [4] was 2.71 h and the GI50 [5] was 153 nM. It also gave a GI50 [6] of 48 nM, a GI50 [7] of 87 nM and a GI50 [8] of 219 nM. It also gave an AUC(0-t) [9] of 748 ng·h/mL, a Cmax [10] of 149 ng/mL and a Tmax [11] of 0.25 h. It also gave a GI50 [12] of 112 nM, a bioavailability [13] of 9.2% and a GI50 [1] of 94 nM. For the same compound, the GI50 [14] was 69 nM, the IC50 [2] was 30 nM and the half-life [15] was 1.98 h. For the same compound, the half-life [16] was 6.46 h, the GI50 [17] was 115 nM and the microsomal CLint [18] was 10 µL/min/mg. It also gave a GI50 [19] of 45 nM, a GI50 [20] of 62 nM and an MRT [21] of 4.52 h. For the same compound, the GI50 [22] was 71 nM, the GI50 [23] was 82 nM and the GI50 [24] was 115 nM. For the same compound, the GI50 [25] was 56 nM, the AUC(0-t) [26] was 356 ng·h/mL and the GI50 [27] was 56 nM. For the same compound, the GI50 [28] was 35 nM.

`CC(C)c1cc(-c2noc(NC(=O)C3CC3)c2-c2ccc(CN(C)C3CCCCC3)cc2)c(O)cc1O` showed a GI50 [1] of 139 nM and an IC50 [2] of 58 nM.

`COc1ccc(-c2c(-c3cc(C(C)(C)C)c(O)cc3O)noc2NC(C)=O)cc1` showed a GI50 [1] of 6170 nM and an IC50 [2] of 300 nM.

Compound `COc1ccc(-c2c(-c3cc(Br)c(O)cc3O)noc2NC(C)=O)cc1` has a GI50 [1] of 3760 nM and an IC50 [2] of 44 nM.

`CC(C)c1cc(-c2noc(NC(=O)C3CC3)c2-c2ccc(CN3CCOCC3)cc2)c(O)cc1O` gave an inhibition at 1 µM [29] of 10.5%, a microsomal CLint [3] of 112 µL/min/mg and an MRT [4] of 1.54 h. The GI50 [5] was 90 nM, the inhibition [30] was “Active” and the inhibition at 20 min, 10 µM [31] was 79%. It also gave a GI50 [6] of 19 nM, a GI50 [7] of 114 nM and a GI50 [8] of 166 nM. The AUC(0-t) [9] was 615 ng·h/mL, the Cmax [10] was 438 ng/mL and the INH [32] was “Not Active”. The inhibition [33] was “Active”, the Tmax [11] was 0.083 h and the GI50 [12] was 35 nM. It also gave a bioavailability [13] of 16.1%, a GI50 [1] of 41 nM and a GI50 [14] of 24 nM. The IC50 [2] was 27 nM, the inhibition at 20 min, 10 µM [34] was 66% and the inhibition [35] was “Active”. The half-life [15] was 1.06 h, the half-life [16] was 1.62 h and the inhibition [36] was “Active”. It also gave an inhibition at 20 min, 10 µM [37] of 22%, a GI50 [17] of 42 nM and a microsomal CLint [18] of 108 µL/min/mg. The inhibition [38] was “Active”, the GI50 [19] was 19 nM and the GI50 [20] was 54 nM. For the same compound, the MRT [21] was 1.86 h, the GI50 [22] was 46 nM and the GI50 [23] was 21 nM. The GI50 [24] was 115 nM, the GI50 [25] was 46 nM and the AUC(0-t) [26] was 496 ng·h/mL. For the same compound, the GI50 [27] was 46 nM and the GI50 [28] was 15 nM.

Work on `CC(C)c1cc(-c2noc(NC(=O)C3CC3)c2-c2ccc(CN3CCSCC3)cc2)c(O)cc1O` yielded a GI50 [1] of 203 nM and an IC50 [2] of 57 nM.

In the case of `CC(C)c1cc(-c2noc(NC(=O)C3CC3)c2-c2ccc(CN3CCC(N4CCOCC4)CC3)cc2)c(O)cc1O` [listing 2 of 2 here], the inhibition [30] is reported as “Active”, the inhibition [33] is reported as “Active” and the inhibition [35] is reported as “Active”. The inhibition [36] was “Active” and the inhibition [38] was “Active”.

`CC(C)c1cc(-c2noc(NC(=O)C3CC3)c2-c2ccc(CN3CCCCC3C)cc2)c(O)cc1O` (centres undefined) showed a GI50 [1] of 113 nM and an IC50 [2] of 35 nM.
